Read-outs that look alike come from different tables or passages of the source.
Tests used:
mAb12.8 [1] = format: binding; settings: for binding to mAb12.8: ELISA of Example 2 part A / Example 3, FIG. 4, GM3 immobilized from methanol; for A450 (absorbance at 450 nm): 10 μg/mL mAb12.8
Procedure: Microtiter plates are prepared with serial dilutions of 3′SL-HSA (prepared as described in Example 1) in Tris-Ca^++ buffer (0.05M Tris HCl, pH 7.5, 0.15 M NaCl, 2 mM CaCl2), starting with 500 ng/well. The plates are incubated at 37° C. for 1 hour to immobilize the carbohydrate on the plastic well surface.
100 μl of 2% BSA in Tans-Cat^++ buffer is added to each well, and the plates are incubated at room temperature for 1 hour, and washed 3 times with Tris-Ca^++ buffer. 100 μl of 10 μg/mL mAb12.8 in 1% BSA Tris-Ca^++ buffer is then added to each well, and the plates are incubated at room temperature for 2 hours. Again, the plates are washed 3 times with Tris-Ca^++ buffer.
100 μl of 1 μg/mL peroxidase-labeled goat anti-mouse IgM (KPL, Inc., Gaithersburg, Md.) in 1% BSA Tris-Ca^++ buffer is added to each well, and the plates are incubated at room temperature for 1 hour, and washed 3 times with Tris-Ca^++ buffer. 100 μl of TMB (tetramethylbenzidine) substrate solution (KPL, Inc., Gaithersburg, Md.) is then added to each well, and the reaction is allowed to proceed for 2 minutes. The reaction is stopped, and detection enhanced, by the addition of 100 μl of 1M formic acid/well. The absorbance at 450 nm is then determined in a Titertek Multiskan MCC/340 plate reader (Flow Laboratories. Inc., McLean, Va.).
To illustrate the specificity of the interaction between 3′SL-HSA and mAb 12.8, and to further characterize the epitope of the antibody, the assay described in Example 2, part A, is performed using the control carbohydrates shown below:
The assays of each of the above HSA conjugates are performed as described for 3′SL-HSA. For GM3, the assay is as described above except that dilutions of GM3 are prepared in methanol, and immobilization on the plastic well surface is achieved by allowing the methanol to completely evaporate under an exhaust hood. After immobilization, 100 μl of 1% BSA in Tris-Ca^++ buffer is added to the wells containing GM3.

[2] = system: KG1A cells bound to mAb12.8; experiment: Parallel plate flow assay, inhibition of CD34+ (KG1A) cell binding to immobilized mAb12.8; format: cell-based; settings: 200 ng carbohydrate per dish, 250 ng mAb12.8, wall shear stress 0.48 dynes/cm^2 for 2 minutes; FIG. 5
Procedure: This Example illustrates the use of a representative carbohydrate according to this invention to release KG1A cells (ATCC No. CCL246.1, Rockville, Md.) bound to mAb12.8.
Monoclonal antibody 12.8 is immobilized on 35 mm tissue culture dishes by adsorption, as shown below:
Each substrate is coated on the dish and incubated at 37° C. for 1 hour prior to adding the next substrate or running the flow assay. The flow assay utilizes a parallel plate flow chamber mounted on an inverted-stage microscope to visualize the adhesive interactions between cells and substrates. Each dish is attached to the flow chamber and mounted on the microscope stage.
To prevent binding of the cells to mAb12.8 by way of Fc receptors on the cell surface, human IgG ([…]) is added to the KG1A cells 10 minutes prior to the flow assay. In addition, 200 ng of 3′SL-HSA is added to dish 2, and 200 ng of 6′SL-HSA is added to dish 3, and flow is initiated such that the cells flow over the surface of the dish at a wall shear stress of 0.48 dynes/cm^2 for 2 minutes, prior to collecting images at 7 different locations on the dish. The images are then quantified, using video microscopy coupled to digital image processing, to determine the number of adherent cells in each image, and the number of cells in the 7 images are averaged.

mAb12.8 [3] = experiment: ELISA, binding of defucosylated SLe^x epitope to mAb12.8 with and without α1,3,4 fucosidase treatment; parameters: species or system mouse; settings: 250 ng per well, FIG. 3; for binding to mAb12.8 after fucosidase treatment: 200 units per well α1,3,4 fucosidase, 37° C. overnight
Procedure: In a related experiment, the binding of a partially defucosylated SLe^X epitope (coupled to HSA) is evaluated using a similar ELISA. […] 100 μl of 2% BSA in Tris-Ca^++ buffer is added to each well to block further non-specific binding, and the plates are incubated at room temperature for 1 hour, followed by 2 washes with Tris-Ca^++ buffer. 200 units per well of α1,3,4 fucosidase (New England Biolabs, Beverly, Mass.) in citrate buffer (pH 4.0) is then added to half of the wells. The plates are covered and incubated at 37° C. overnight.
The plates are then washed three times with Tris-Ca^++ buffer and mAb12.8 (100 μl of 10 μg/mL mAb12.8 in Tris-Ca^++ buffer) is then added to each well except for 1 negative control for each condition. The plates are incubated at room temperature for 2 hours.
The plates are then washed 3 times with Tris-Ca^++ buffer, and 100 μl of 1 μg/mL peroxidase-labeled goat anti-mouse IgM (KPL, Inc., Gaithersburg, Md.) in 1% BSA Tris-Ca^++ buffer is added to each well. The plates are incubated at room temperature for 1 hour. The wells are then washed 5 times with Tris-Ca^++ buffer, and 100 μl of TMB substrate solution (KPL, Gaithersburg, Md.) is added to each well, and the reaction is allowed to proceed for 2 minutes. The reaction is stopped, and detection enhanced, by the addition of 100 μl of IM formic acid/well. The absorbance at 450 nm is then determined in a Titertek Multiskan MCC/340 plate reader (Flow Laboratories, Inc., McLean, Va.).

mAb12.8 [4] = experiment: ELISA, effect of varying linker arm and carrier group on carbohydrate binding to mAb12.8; parameters: species or system mouse; settings: 100 μl of carbohydrate at 0.5 μg/ml immobilized; 10 μg/ml mAb12.8; FIG. 2
Procedure: The effect of altering the chemical linker arm and carrier group on the 3′SL binding to mAb12.8 is evaluated using the following carbohydrates, prepared as described in example 1: 3′SL-APD-dendrimer. 3′SL-APD-BSA. 3′SL-APEA-BSA, 3′SL-APD-HSA and 6′SL-APD-HSA.
100 μl of each of the above carbohydrates is added to duplicate wells in a 96-well microtiter plate at 0.5 μg/ml. The plates are incubated overnight at 4° C. to immobilize the carbohydrates on the plastic well surface. The wells are then washed three times and filled with Tris-Cat^++ buffer (0.05 M Tris-HCl, pH 7.5, 0.15 M NaCl, 2 mM CaCl2) containing 1% BSA. The plates are then incubated for 1 hour at room temperature to block nonspecific binding.
The plates are washed three times with Tris-Ca^++ buffer and mAb 12.8 (100 μl of 10 μg/ml in Tris-Ca^++ buffer) is added to all wells except one negative control for each condition. The plates are incubated for an additional two hours at room temperature. […]
Wells are washed five times with Tris-Ca^++ buffer and 100 μl of tetramethylbenzidine solution (TMB substrate solution. KPL, Inc., Gaithersburg, Md.) is added. […] The microtiter plate is read in a Titertek Multiskan MCC/340 plate reader (Flow Laboratories, Inc., McLean, Va.) set at a wavelength of 450 nm.

| Substance | binding to mAb12.8 (mAb12.8 [1]) | binding to mAb12.8 after fucosidase treatment (mAb12.8 [3]) | also measured |
| --- | --- | --- | --- |
| Neu5Acα2-3Galβ1-3GlcNAcβ1-3Galβ1-4(Glc)-APD-HSA [LSTa-HSA, reference compound] | does not bind | – | – |
| Neu5Acα2-3Galβ1-4(Glc)-APD-HSA [3′SL-HSA] | binds to mAb12.8 | no detectable effect on binding | A450 (absorbance at 450 nm) (mAb12.8 [1]; about 100 ng per well immobilized carbohydrate): greater than 1; A450 (absorbance at 450 nm) (mAb12.8 [1]; about 200 ng per well immobilized carbohydrate): ~3; A450 (absorbance at 450 nm) (mAb12.8 [1]; amounts less than about 70 ng/well immobilized carbohydrate): approximately 0.5; inhibition of binding of KG1A cells to mAb12.8 [2]: inhibits the binding of KG1A cells to mAb12.8; binding to mAb12.8 (mAb12.8 [3]; absence of fucosidase treatment): bind to mAb12.8 |
| Neu5Acα2-3Galβ1-4GlcNAcβ1-3Galβ1-4(Glc)-HSA | – | bind to mAb12.8 | – |
| Neu5Acα2-3Galβ1-4Glcβ1-1Ceramide [GM3, reference compound] | does not bind | – | – |
| Neu5Acα2-6Galβ1-4(Glc)-APD-HSA [6′SL-HSA, reference compound] | does not bind | – | binding to mAb12.8 (mAb12.8 [4]): does not bind |

Reference: US6362010B1, “Methods and compositions for release of CD3430 cells from affinity matrices” (priority 1995, dated 2002)
